Assays:
Candida albicans = experiment: Biofilm formation assay (crystal violet); type: cell-based; settings: for normalized biofilm (% of control): 0.06 wt % acid, unbuffered, biofilm measured after 24 h; for normalized biofilm (OD560) at pH 2.6: pH 2.6, 24 h treatment; for normalized biofilm (OD560) at pH 6.1: pH 6.1, 24 h treatment
Method: (§1) Yeast strains (Table 1) were grown at 37° C. in complete medium YPD (0.5% yeast extract, 1% peptone, 2% glucose) or minimal medium consisting of YNB (yeast nitrogen base without amino acids and ammonium sulphate, FORMEDIUM™, CYN0505) supplemented with 0.5% ammonium sulphate, 0.2% glucose and 100 mM L-proline. If needed 2% agar was used to solidify media. The liquid minimal medium (YNB (yeast nitrogen base without amino acids and ammonium sulphate, FORMEDIUM™, CYN0505) supplemented with 0.5% ammonium sulphate, 0.2% glucose and 100 mM L-proline) was used for biofilm assay (biofilm medium).
(§2) In the experiments on the impact of pH on biofilm the pH values (from 2.6 to 6.6) were obtained using either different potassium phosphate buffers at the final concentration 0.25 M, or by the addition of citric acid, lactic acid, and gluconic acid to the biofilm medium.
(§3) Biofilm was measured in liquid culture as described [K. Scherz et al., G3 (Bethesda), 2014, 4, 1671-1680. I. Serrano-Fujarte et al. Biomed Res Int. 2015; 2015:783639] with some modifications. Prior the biofilm assay, yeast cultures were grown in liquid YPD medium for 24 hours until stationary phase (OD600 11-17)^2, cells were then pelleted by centrifugation (1699 g), washed with sterile water and cells were further inoculated into test biofilm medium (YNB (yeast nitrogen base without amino acids and ammonium sulphate) supplemented with 0.5% ammonium sulphate, 0.2% glucose and 100 mM L-proline pH7.0) at final concentration 0.2 OD600/ml and incubated in 96-well flat-bottom polystyrene microtiter plates (Sigma Aldrich, Corning® Costar® culture plates, CLS3596-50EA) for 72 hours at 37° C. thermostat. At defined time points crystal violet (HT901-8FOZ; Sigma Aldrich) was added to the media at the final concentration 0.05%, in addition total biomass was measured. After 24 hours of cells staining, plate wells were washed four times with 200 μl of water to remove planktonic cells, biofilms were then dried and dissolved in 200 μl of 96% ethanol. Total biomass and crystal violet biofilm staining measurements were performed at OD560 with FLUOstar OPTIMA plate reader, BMG LABTECH. Crystal violet biofilm measurements were normalized to the total biomass (OD560Biofilm/OD560 total biomass).
(§4) To compare the effects of different hydroxylated carboxylic acids at low concentrations, the biofilm formation was measured 24 h after addition of 0.06 wt % of glyceric acid, xylonic acid, citric acid, gluconic acid, and lactic acid, under unbuffered conditions.
In order to further evaluate the effect of gluconic acid in preventing biofilm formation, the biofilm formation at different pH were determined (as described in Example 1) for gluconic acid, lactic acid and citric acid.

Candida glabrata = experiment: Biofilm formation assay (crystal violet); type: cell-based; settings: for normalized biofilm (OD560) at pH 2.6: pH 2.6, 72 h treatment; for normalized biofilm (OD560) at pH 6.1: pH 6.1, 72 h treatment
Method: as §1, §2, §3
Candida glabrata is much more complicated to treat, compared to Candida albicans. However, a clear effect is obtained by longer treatment, i.e. 72 h with gluconic acid (Table 4).

Escherichia coli K12 = experiment: E. coli biofilm study in M9 medium (crystal violet); type: cell-based; settings: for effect on growth (biomass): M9 medium, 24-48 hours; for biofilm lowered: pH 6.6
Method: The bacterial strain Escherichia coli K12 was used for the biofilm study. This strain was maintained on LB medium at 37° C. The biofilm was studied in synthetic medium M9 (×1 M9 minimal salts (Sigma M6030), 2 mM MgSO4, 0.1 mM CaCl2, and 0.2% glucose), which contained either phosphate buffer, citric acid, lactic acid, gluconic acid or glucono-O-lactone to obtain media with different pH (2.6-6.6).
The overnight culture of E. coli K12 (OD600˜5.0) was washed with sterile water and inoculated to the final concentration 0.2 OD/ml of M9 medium with different pH of different compounds. The biofilm development was studied in 96-well flat-bottom polystyrene microtiter plates (Sigma Aldrich, Corning® Costar® culture plates, CLS3596-50EA). The biofilm was stained with crystal violet.

[1] = Resulting pH of biofilm medium after addition of hydroxylated carboxylic acid; type: physicochemical; settings: 0.06% acid in biofilm medium, unbuffered
Method: as §4

Structure (SMILES): CC(O)C(=O)O (centres unmarked) [lactic acid]
- normalized biofilm (% of control) (Candida albicans): 13 % of control
- normalized biofilm (OD560) at pH 2.6 (Candida albicans): 1.6 OD560
- normalized biofilm (OD560) at pH 6.1 (Candida albicans): 3.1 OD560
- normalized biofilm (OD560) at pH 2.6 (Candida glabrata): 0.9 OD560
- normalized biofilm (OD560) at pH 6.1 (Candida glabrata): 2.8 OD560
- effect on growth (biomass) (Escherichia coli K12): inhibiting effect on the growth
- biofilm lowered (Escherichia coli K12): ~2 fold
- resulting pH [1]: 4.9

Structure (SMILES): O=C(O)C(O)CO (centres unmarked) [glyceric acid]
- normalized biofilm (% of control) (Candida albicans): 40 % of control
- resulting pH [1]: 7.0

Structure (SMILES): O=C(O)[C@H](O)[C@@H](O)[C@H](O)CO [xylonic acid]
- normalized biofilm (% of control) (Candida albicans): 31 % of control
- resulting pH [1]: 7.0

Structure (SMILES): O=C(O)[C@H](O)[C@@H](O)[C@H](O)[C@H](O)CO [gluconic acid]
- normalized biofilm (% of control) (Candida albicans): 6 % of control
- less biofilm formation on replacing lactic acid by gluconic acid (Candida albicans; 0.06 wt %, 24 h, 6% vs 13% of control): > 50%
- normalized biofilm (OD560) at pH 6.1 (Candida albicans): 0.17 OD560
- normalized biofilm (OD560) at pH 2.6 (Candida glabrata): 0.07 OD560
- normalized biofilm (OD560) at pH 6.1 (Candida glabrata): 1.6 OD560
- effect on growth (biomass) (Escherichia coli K12): inhibiting effect on the growth
- biofilm lower compared to the phosphate medium (Escherichia coli K12; pH 2.6): 38 fold
- biofilm lower compared to the phosphate medium (Escherichia coli K12; pH 3.0): 15 fold
- biofilm lowered (Escherichia coli K12): ~2 fold
- resulting pH [1]: 6.5

Structure (SMILES): O=C(O)CC(O)(CC(=O)O)C(=O)O [citric acid]
- normalized biofilm (% of control) (Candida albicans): 14 % of control
- normalized biofilm (OD560) at pH 2.6 (Candida albicans): 0.34 OD560
- normalized biofilm (OD560) at pH 6.1 (Candida albicans): 4.6 OD560
- normalized biofilm (OD560) at pH 2.6 (Candida glabrata): 1.0 OD560
- normalized biofilm (OD560) at pH 6.1 (Candida glabrata): 2.9 OD560
- effect on growth (biomass) (Escherichia coli K12): inhibiting effect on the growth
- resulting pH [1]: 4.6
